Assays:
Type in all cases: physicochemical
[1] = Cold gelation: addition of a solution of the gelling agent (10% in NMP, 0.05 ml) to an organic solution (0.5 ml); design: key: g = gelation; s = soluble; p = precipitates; c = crystallizes; ns = not soluble; v = viscous; g* = unstable gel, precipitates; cg = crystalline gel; conditions: for Cold gelation in 1,2-dichloroethane: 0.05 ml added to 0.5 ml 1,2-dichloroethane; for Cold gelation in Toluene: 0.05 ml added to 0.5 ml Toluene; for Cold gelation in cyclohexane: 0.05 ml added to 0.5 ml cyclohexane; for Cold gelation in methyl laurate: 0.05 ml added to 0.5 ml methyl laurate; for Cold gelation in n-butyl acetate: 0.05 ml added to 0.5 ml n-butyl acetate
Source text: (§1) Preferred examples include aromatic and nonaromatic hydrocarbons, alcohols, ethers, esters, aldehydes, alkanoic acids, epoxides, amines, halogenated hydrocarbons, silicon oils, vegetable oils, phosphoric esters, sulfoxides, water and mixtures thereof. In order to obtain a gel, the gelling agent or thickener is preferably mixed with the composition to be transformed to a gel in an amount of between 0.01 and 50 wt. %, based on the weight of the composition. In a preferred embodiment, the mixture of the gelling agent or thickener and the composition is heated to allow for an even better gel formation or thickening. Typically, the heating will involve raising the temperature of the mixture to about 30-175° C. until a clear solution is obtained. In an alternative embodiment, the gelling agent is first dissolved in a polar or apolar solvent and then added to or sprayed into a composition or solvent to be converted into a gel.
Addition of a solution of the gelling agent (10% in NMP, 0.05 ml) to an organic solution (0.5 ml, “cold gelation”)

[2] = Solvent scope of N,N′-dialkylaldaramides (1%) or N,N′-dialkylpentaramides (1%): gelation/solubility behaviour in solvents; design: key: g = gelation; s = soluble; p = precipitates; c = crystallizes; ns = not soluble; v = viscous; g* = unstable gel, precipitates; cg = crystalline gel; conditions: 1% gelling agent
Source text: It will be understood that the use of the present gelling agents or thickeners to prepare a gel or to thicken a composition is also encompassed by the invention. As is well known, gelling behavior of compounds or compositions is highly unpredictable. […] Preferably, the gelling phenomenon is thermo reversible.
as §1
Solvent scope of N,N′-dialkylaldaramides (1%) or N,N′-dialkylpentaramides (1%) 1-24 refers to the compounds prepared in Examples 1-23)

[3] = Gelation of N,N′-dialkyladaramides (1%) in mixtures of solvents; design: key: g = gelation; s = soluble; p = precipitates; c = crystallizes; ns = not soluble; v = viscous; g* = unstable gel, precipitates; cg = crystalline gel; conditions: 1% gelling agent
Source text: as §1
Gelation of N,N′-dialkyladaramides (1%) in Mixtures of Solvents

[4] = Maximum gelator concentration
Source text: Maximum gelator concentration of 5 (C6-Glu-C6) and 15 (C12-Glu-C12)

Cold gelation in 1,2-dichloroethane [1]	Cold gelation in Toluene [1]	Cold gelation in cyclohexane [1]	Cold gelation in methyl laurate [1]	Cold gelation in n-butyl acetate [1]	Gelation/solubility behaviour in 1,2-dichloroethane [2]	Gelation/solubility behaviour in 2-octanol [2]	Gelation/solubility behaviour in 2-propanol [2]	Gelation/solubility behaviour in Cyclohexane [2]	Gelation/solubility behaviour in Dimethylsulfoxide [2]	Gelation/solubility behaviour in Ethanol [2]	Gelation/solubility behaviour in Hexadecane [2]	Gelation/solubility behaviour in Toluene [2]	Gelation/solubility behaviour in Water [2]	Gelation/solubility behaviour in n-butylacetate [2]	Gelation/solubility behaviour in p-xylene [2]	further results	Molecule
s	s	s	s	s	s	s	s	s	s	s	s	s	p	s	s	Gelation/solubility behaviour in 2-methoxyethanol ([2]; 2-methoxyethanol): s; Gelation/solubility behaviour in methyl benzoic acid [2]: s; Gelation/solubility behaviour in methyl laurate ([2]; methyl laurate): s; Gelation/solubility behaviour in silicon oil [2]: s	di-8-pentadecyl D-glucaramide [Example 18]
–	–	–	–	–	s	s	s	g*	s	s	p	p	c	p	p	Gelation in cyclohexane [3]: g*; Gelation in Dioxane [3]: s; Gelation in H2O [3]: c; Gelation in cyclohexane/dioxane 1:1 ([3]; cyclohexane/dioxane 1:1): s; Gelation in dioxane/H2O 1:1 [3]: p; Gelation in dioxane/H2O 1:2 [3]: p; Gelation in dioxane/H2O 2:1 [3]: s; Gelation in dioxane/H2O 3:1 [3]: s	CC(C)=CCCC(C)CCNC(=O)[C@@H](O)[C@@H](O)[C@H](O)[C@@H](O)C(=O)NCCC(C)CCC=C(C)C (stereo partly drawn) [Example 11, dicitronellyl D-glucaramide]
c	c	p	c	c	cg	cg	cg	–	cg	cg	ns	–	ns	–	–	Maximum gelator concentration in 1,2-dichloroethane ([4]; 1,2-dichloroethane): <5%; Maximum gelator concentration in Toluene ([4]; Toluene): <2.5%; Maximum gelator concentration in cyclohexane ([4]; cyclohexane): <5%; Maximum gelator concentration in methyl laurate ([4]; methyl laurate): <2.5%; Maximum gelator concentration in n-butylacetate ([4]; n-butylacetate): <2.5%; Maximum gelator concentration in silicon oil (Dow Corning 702) ([4]; silicon oil (Dow Corning 702)): <2.5%	O=C(NC1CCCCC1)[C@@H](O)[C@@H](O)[C@H](O)[C@@H](O)C(=O)NC1CCCCC1 [Example 5, dicyclohexyl D-glucaramide]
–	–	–	–	–	c	p	c	ns	c	ns	ns	ns	ns	ns	ns	–	CCCCCCCCCCCCNC(=O)[C@@H](O)[C@@H](O)[C@H](O)[C@H](O)C(=O)NCCCCCCCCCCCC [Example 13, didodecyl D-mannaramide]
–	–	–	–	–	p	p	p	g	p	p	ns	p	–	p	p	–	CO[C@@H]([C@H](O)[C@H](O)C(=O)NC1CCCCCCCCCCC1)[C@@H](O)C(=O)NC1CCCCCCCCCCC1 [Example 22, 3-O-methyl-dicyclododecyl D-glucaramide]
–	–	–	–	–	p	c	p	g	p	p	p	p	ns	c	p	Gelation/solubility behaviour in methyl benzoic acid [2]: p; Gelation/solubility behaviour in silicon oil [2]: v	CCCCCCCCCCCCNC(=O)[C@@H](O)[C@@H](O)[C@H](OC)[C@@H](O)C(=O)NCCCCCCCCCCCC [Example 21, 3-O-methyl-didodecyl D-glucaramide]
p	p	p	p	p	p	ns	ns	ns	s	p	ns	ns	ns	ns	ns	Gelation in cyclohexane [3]: ns; Gelation in Dioxane [3]: c; Gelation in H2O [3]: ns; Gelation in dioxane/H2O 1:1 [3]: ns; Gelation in dioxane/H2O 1:2 [3]: ns; Gelation in dioxane/H2O 2:1 [3]: c; Gelation in dioxane/H2O 3:1 [3]: c	CCCCCCCCCCCCNC(=O)[C@@H](O)[C@@H](O)[C@H](O)[C@@H](O)C(=O)NCCCCCCCCCCCC [Example 12, didodecyl D-glucaramide]
